Experimental data from patent publication US20240228469A1, “PCSK9 INHIBITORS AND METHODS OF USE THEREOF” (AstraZeneca AB, priority 2022, published 2024).

Each molecule was assayed against PCSK9 (Homo sapiens, UniProt Q8NBP7) (assay: Assay 2 Biophysical human PCSK9 assay (SPR, Biacore)). Conditions: single-cycle kinetics, 30° C., geometric mean, read-out: Assay 2 (PCSK9 BIAcore DBA Cr) GMean Kd.
Chain of PCSK9 (Q8NBP7 31-692): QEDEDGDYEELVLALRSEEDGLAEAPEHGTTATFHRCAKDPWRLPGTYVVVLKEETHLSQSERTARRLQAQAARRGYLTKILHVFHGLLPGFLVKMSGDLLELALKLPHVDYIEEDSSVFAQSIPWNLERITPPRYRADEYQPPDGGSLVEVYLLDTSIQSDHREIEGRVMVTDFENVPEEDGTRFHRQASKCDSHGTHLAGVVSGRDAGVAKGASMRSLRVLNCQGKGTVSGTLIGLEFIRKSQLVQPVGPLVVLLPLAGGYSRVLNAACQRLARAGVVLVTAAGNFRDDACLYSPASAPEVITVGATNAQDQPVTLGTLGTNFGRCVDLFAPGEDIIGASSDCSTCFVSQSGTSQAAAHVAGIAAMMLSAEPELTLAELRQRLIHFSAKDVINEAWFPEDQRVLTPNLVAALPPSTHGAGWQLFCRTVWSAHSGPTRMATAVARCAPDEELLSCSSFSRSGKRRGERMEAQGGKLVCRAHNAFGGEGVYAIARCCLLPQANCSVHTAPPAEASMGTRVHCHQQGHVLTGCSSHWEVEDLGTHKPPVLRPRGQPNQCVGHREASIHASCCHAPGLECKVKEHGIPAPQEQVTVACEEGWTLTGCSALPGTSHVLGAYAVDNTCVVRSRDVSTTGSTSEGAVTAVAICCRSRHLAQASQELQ
Format: binding
Parameters: biotinylated human PCSK9 (31-692)-Avi-His6; His6 (C)
Protocol: The SPR binding experiments were performed on a Biacore S200 optical biosensor unit at 30° C. A Series S Sensor Chip SA that is designed to bind biotinylated molecules for interaction analysis in Biacore systems was equilibrated at room temperature prior to use. The running buffer for protein tethering and subsequent ligand binding experiments was 10 mM HEPES pH 7.4, 150 mM NaCl, 0.05% (v/v) Tween 20 pH 7.4.
For the surface tethering of PCSK9, biotinylated human PCSK9 (31-692)-Avi-His6 at a concentration of 0.5 mg/mL was used. Prior to the surface tethering, the surface was exposed to a solution of 50 mM NaOH, 500 mM NaCl via 3 consecutive injections of this solution with a contact time of 60 s and a flowrate of 10 μL min^−1 to remove non-conjugated streptavidin. The PCSK9 protein was diluted to a concentration of 20 μg/mL using running buffer and injected with a contact time of 180-300 s and a flowrate of 10 μL min^−1 over a single flow channel (typically flow channel 2 or flow channel 4) with the aim to achieve protein capture levels of >5000 response units (RU). Remaining biotin binding sites were blocked via 2 consecutive injections of a 10 μM D-biotin solution in running buffer with a contact time of 60 s and a flowrate of 10 μL min^−1 over all flow-channels. Flow-channels 1 and 3 typically served as a reference surface throughout the subsequent binding experiments.
The binding experiments were all performed at a flow rate of 30 PL min^−1 and by employing the method of single-cycle kinetics. This approach involves the sequential injection of a compound concentration series without regeneration steps. A contact time between 90-150 s was selected, which was followed by a 40 min dissociation phase to allow for a proper estimation of the dissociation rate constant. Test compounds were delivered in DMSO at a concentration of 10 mM and a digital dispenser HP D300 was used to set up the compound concentration series using 6 concentrations. The tested concentrations have been 30, 100, 300, 1000, 3000 and 10000 nM. Prior to injecting any compound, the surfaces were equilibrated by injecting running buffer over them in three separate pulses. The data collection rate was set to 10 Hz.
The raw sensorgrams of the compound injections were first subjected to reference subtraction (subtracting the signal from flow channel 1 and/or 3 from the signal from channels 2 and/or 4 respectively) and then blank subtraction (subtracting the signal from injecting DMSO controls from the reference subtracted data). The resulting double-referenced sensorgrams were then fitted using a 1:1 binding interaction model using the manufactures software package to extract kinetic- and affinity data. Active compounds have been defined by creating a detectable binding signal at the highest compound concentration ([…]) of 3 RUs. Kinetic- and affinity data on active compounds are only provided for those compounds where the binding signal at the highest compound concentration ([…]) is 50% of the theoretical maximum binding signal for a 1:1 binding interaction (Rmax, typically between 15-20 RUs) in order to enable a proper fitting of the data.
`O=c1ccccn1-c1ccc(N[C@H]2CC[C@H](Nc3ncc(C4CC4)nn3)C2)nc1` [Example 50, 6′-(((1S,3S)-3-((6-Cyclopropyl-1,2,4-triazin-3-yl)amino)cyclopentyl)amino)-2H-[1,3′-bipyridin]-2-one] gave a Kd of 9.8 nM. In the case of `O=c1c(C(F)(F)F)cccn1-c1ccc(N[C@H]2CC[C@H](Nc3ncc(C4CC4)nn3)C2)nc1` [Example 51, 6′-(((1S,3S)-3-((6-Cyclopropyl-1,2,4-triazin-3-yl)amino)cyclopentyl)amino)-3-(trifluoromethyl)-2H-[1,3′-bipyridin]-2-one], the Kd is reported as 0.9 nM. With `O=c1c(OC(F)(F)F)cccn1-c1ccc(N[C@H]2CC[C@H](Nc3ncc(C4CC4)nn3)C2)nc1` [Example 52, 6′-(((1S,3S)-3-((6-Cyclopropyl-1,2,4-triazin-3-yl)amino)cyclopentyl)amino)-3-(trifluoromethoxy)-2H-[1,3′-bipyridin]-2-one] the Kd was 0.7 nM. For `O=c1c(Cl)cccn1-c1ccc(N[C@H]2CC[C@H](Nc3ncc(C4CC4)nn3)C2)nc1` [Example 55, 3-Chloro-6′-(((1S,3S)-3-((6-cyclopropyl-1,2,4-triazin-3-yl)amino)cyclopentyl)amino)-2H-[1,3′-bipyridin]-2-one], the Kd was 0.4 nM. Molecule `N#Cc1ccc(=O)n(-c2ccc(N[C@H]3CC[C@H](Nc4ncc(C5CC5)nn4)C3)nc2)c1` [Example 56, 6′-(((1S,3S)-3-((6-Cyclopropyl-1,2,4-triazin-3-yl)amino)cyclopentyl)amino)-2-oxo-2H-[1,3′-bipyridine]-5-carbonitrile] has a Kd of 7.4 nM. With `CN1CC(=O)N(c2ccc(N[C@H]3CC[C@H](Nc4ncc(C5CC5)nn4)C3)nc2)C1=O` [Example 57, 3-(6-(((1S,3S)-3-((6-Cyclopropyl-1,2,4-triazin-3-yl)amino)cyclopentyl)amino)pyridin-3-yl)-1-methylimidazolidine-2,4-dione] the Kd was 7.5 nM. `N#Cc1cccn(-c2ccc(N[C@H]3CC[C@H](Nc4ncc(C5CC5)nn4)C3)nc2)c1=O` [Example 58, 6′-(((1S,3S)-3-((6-Cyclopropyl-1,2,4-triazin-3-yl)amino)cyclopentyl)amino)-2-oxo-2H-[1,3′-bipyridine]-3-carbonitrile] gave a Kd of 2.2 nM. With `CN1C(=O)CN(c2ccc(N[C@H]3CC[C@H](Nc4ncc(C5CC5)nn4)C3)nc2)C1=O` [Example 62, 1-(6-(((1S,3S)-3-((6-Cyclopropyl-1,2,4-triazin-3-yl)amino)cyclopentyl)amino)pyridin-3-yl)-3-methylimidazolidine-2,4-dione] the Kd was 4.3 nM. With `Cn1c(=O)n(-c2ccc(N[C@H]3CC[C@H](Nc4ncc(C5CC5)nn4)C3)nc2)c2ncccc21` [Example 63, 3-(6-(((1S,3S)-3-((6-Cyclopropyl-1,2,4-triazin-3-yl)amino)cyclopentyl)amino)pyridin-3-yl)-1-methyl-1,3-dihydro-2H-imidazo[4,5-b]pyridin-2-one] the Kd was 1.4 nM. `COc1cccn(-c2ccc(N[C@H]3CC[C@H](Nc4ncc(C5CC5)nn4)C3)nc2)c1=O` [Example 64, 6′-(((1S,3S)-3-((6-Cyclopropyl-1,2,4-triazin-3-yl)amino)cyclopentyl)amino)-3-methoxy-2H-[1,3′-bipyridin]-2-one] showed a Kd of 0.4 nM. With `COc1ccc(=O)n(-c2ccc(N[C@H]3CC[C@H](Nc4ncc(C5CC5)nn4)C3)nc2)c1` [Example 65, 6′-(((1S,3S)-3-((6-Cyclopropyl-1,2,4-triazin-3-yl)amino)cyclopentyl)amino)-5-methoxy-2H-[1,3′-bipyridin]-2-one] the Kd was 5.8 nM. For `Cc1cccn(-c2ccc(N[C@H]3CC[C@H](Nc4ncc(C5CC5)nn4)C3)nc2)c1=O` [Example 66, 6′-(((1S,3S)-3-((6-Cyclopropyl-1,2,4-triazin-3-yl)amino)cyclopentyl)amino)-3-methyl-2H-[1,3′-bipyridin]-2-one], the Kd was 1.5 nM. Work on `Cc1cnc(N[C@H]2CC[C@H](Nc3ccc(-n4ccccc4=O)cn3)C2)nn1` [Example 67, 6′-(((1S,3S)-3-((6-Methyl-1,2,4-triazin-3-yl)amino)cyclopentyl)amino)-2H-[1,3′-bipyridin]-2-one] yielded a Kd of 17 nM. In the case of `C#CCNC(=O)c1cnc(N[C@H]2CC[C@H](Nc3ccc(-n4ccccc4=O)cn3)C2)nn1` [Example 69, 3-(((1S,3S)-3-((2-Oxo-2H-[1,3′-bipyridin]-6′-yl)amino)cyclopentyl)amino)-N-(prop-2-yn-1-yl)-1,2,4-triazine-6-carboxamide], the Kd is reported as 12 nM. `O=C(NC1COC1)c1cnc(N[C@H]2CC[C@H](Nc3ccc(-n4ccccc4=O)cn3)C2)nn1` [Example 70, N-(Oxetan-3-yl)-3-(((1S,3S)-3-((2-oxo-2H-[1,3′-bipyridin]-6′-yl)amino)cyclopentyl)amino)-1,2,4-triazine-6-carboxamide] was tested, and the Kd was 21 nM. `CNC(=O)c1cnc(N[C@H]2CC[C@H](Nc3ccc(-n4ccccc4=O)cn3)C2)nn1` [Example 75, N-Methyl-3-(((1S,3S)-3-((2-oxo-2H-[1,3′-bipyridin]-6′-yl)amino)cyclopentyl)amino)-1,2,4-triazine-6-carboxamide] gave a Kd of 16 nM. With `O=c1ccc(Cl)cn1-c1ccc(N[C@H]2CC[C@H](Nc3ncc(C4CC4)nn3)C2)nc1` [Example 112, 5-Chloro-6′-(((1S,3S)-3-((6-cyclopropyl-1,2,4-triazin-3-yl)amino)cyclopentyl)amino)-2H-[1,3′-bipyridin]-2-one] the Kd was 3.9 nM. In the case of `O=c1ccncn1-c1ccc(N[C@H]2CC[C@H](Nc3ncc(C4CC4)nn3)C2)nc1` [Example 114, 3-(6-(((1S,3S)-3-((6-Cyclopropyl-1,2,4-triazin-3-yl)amino)cyclopentyl)amino)pyridin-3-yl)pyrimidin-4(3H)-one], the Kd is reported as 5.3 nM. Molecule `Cn1c(=O)n(-c2ccc(N[C@H]3CC[C@H](Nc4ncc(C5CC5)nn4)C3)nc2)c2cc(C#N)ccc21` [Example 116, 3-(6-(((1S,3S)-3-((6-Cyclopropyl-1,2,4-triazin-3-yl)amino)cyclopentyl)amino)pyridin-3-yl)-1-methyl-2-oxo-2,3-dihydro-1H-benzo[d]imidazole-5-carbonitrile] has a Kd of 0.3 nM. For `Cn1c(=O)n(-c2ccc(N[C@H]3CC[C@H](Nc4ncc(C5CC5)nn4)C3)nc2)c2ccc(C#N)cc21` [Example 117, 1-(6-(((1S,3S)-3-((6-Cyclopropyl-1,2,4-triazin-3-yl)amino)cyclopentyl)amino)pyridin-3-yl)-3-methyl-2-oxo-2,3-dihydro-1H-benzo[d]imidazole-5-carbonitrile], the Kd was 0.9 nM. `O=c1cccnn1-c1ccc(N[C@H]2CC[C@H](Nc3ncc(C4CC4)nn3)C2)nc1` [Example 118] showed a Kd of 8.5 nM. For `Cn1c(=O)n(-c2ccc(N[C@H]3CC[C@H](Nc4ncc(C5CC5)nn4)C3)nc2)c2ccc(C(=O)O)cc21` [Example 121, 1-(6-(((1S,3S)-3-((6-Cyclopropyl-1,2,4-triazin-3-yl)amino)cyclopentyl)amino)pyridin-3-yl)-3-methyl-2-oxo-2,3-dihydro-1H-benzo[d]imidazole-5-carboxylic acid], the Kd was 1.6 nM. In the case of `Cc1cnc(N[C@H]2CC[C@H](Nc3ccc(-n4cc(C#N)ccc4=O)cn3)C2)nn1` [Example 128, 6′-(((1S,3S)-3-((6-Methyl-1,2,4-triazin-3-yl)amino)cyclopentyl)amino)-2-oxo-2H-[1,3′-bipyridine]-5-carbonitrile], the Kd is reported as 30 nM. `Cc1cnc(N[C@H]2CC[C@H](Nc3ccc(-n4cccc(Cl)c4=O)cn3)C2)nn1` [Example 129, 3-Chloro-6′-(((1S,3S)-3-((6-methyl-1,2,4-triazin-3-yl)amino)cyclopentyl)amino)-2H-[1,3′-bipyridin]-2-one] showed a Kd of 1.3 nM. For `Cc1cnc(N[C@H]2CC[C@H](Nc3ccc(-n4cccc(C)c4=O)cn3)C2)nn1` [Example 131, 3-Methyl-6′-(((1S,3S)-3-((6-methyl-1,2,4-triazin-3-yl)amino)cyclopentyl)amino)-2H-[1,3′-bipyridin]-2-one], the Kd was 2.4 nM. `COc1cccn(-c2ccc(N[C@H]3CC[C@H](Nc4ncc(C)nn4)C3)nc2)c1=O` [Example 132, 3-Methoxy-6′-(((1S,3S)-3-((6-methyl-1,2,4-triazin-3-yl)amino)cyclopentyl)amino)-2H-[1,3′-bipyridin]-2-one] was tested, and the Kd was 1.5 nM.
